# Test results from publication PMC11219871, “Epigenetic-based differentiation therapy for Acute Myeloid Leukemia” (Nature Communications, 2024).
# Values joined by “and” are separate entries in the source; they are usually repeats but may differ in a detail not shown here. Equal values may be shown once. Read-outs that look alike come from different tables or passages of the source.
# Tests used:
# [1] = tested on: LINE-1 DNA methylation in HL-60; test: LINE-1 pyrosequencing; format: cell-based, human
# Experimental: (§1) DNA methylation of the repetitive element LINE-1 was analyzed using a pyrosequencing technique. […] Cells were washed twice with PBS, and then genomic DNA was extracted using a DNA Kit (Nucleo Spin Tissue, Cat No 74095250, Macherey-Nagel) following the manufacturer's instructions. DNA purity and concentration were measured using a NanoDrop spectrophotometer (Thermo Scientific). A 1 μg amount of genomic DNA was treated and modified using a CpGenome DNA modification Kit (Cat No S7820, Chemicon International) following the manufacturer's instructions. […] [NT]) in a final volume of 25 μL. The resulting biotinylated PCR products were immobilized to Streptavidin Sepharose ® High-Performance beads (GE Healthcare) and processed to yield high-quality ssDNA using the PyroMark Vacuum Prep Workstation (Biotage) according to the manufacturer's instructions. The pyrosequencing reactions were performed using the PyromarkTM ID (Biotage), and sequence analysis was performed using the PyroQ-CpG analysis software (Biotage).
# [2] = tested on: LINE-1 DNA methylation in MV4-11; test: LINE-1 pyrosequencing; format: cell-based, human
# Experimental: as §1
# [3] = tested on: LINE-1 DNA methylation in MOLM-13; test: LINE-1 pyrosequencing; format: cell-based, human
# Experimental: as §1
# [4] = tested on: LINE-1 DNA methylation in ML-2; test: LINE-1 pyrosequencing; format: cell-based, human
# Experimental: as §1
# [5] = Liver microsomal stability; format: in vitro ADME; conditions: read-out: Liver Microsomal Stability Estimation T1/2
# Experimental: This study was conducted at Wuxi (http://www.wuxi.com/). […] A 5-μL aliquot of stock solution of test compound (10 mM; 100% DMSO) was diluted in 495 μL of […] (final concentration of 100 μM, 99% MeOH). Then, 50 μL of this intermediate solution was diluted in 450 μL of 100 mM potassium phosphate buffer to a concentration of 10 μM (working solution, 9.9% MeOH). The β-nicotinamide adenine dinucleotide phosphate reduced form (NADPH) regenerating system also contained tetrasodium salt, NADPH•4Na (Sigma, Cat.# No.00616). Human liver microsomes were obtained from Corning (Cat.#452117), and C57 mouse liver microsomes from Xenotech (Cat.#M5000), at a final concentration of 0.5 mg protein/mL. A volume of 10 μL of working solution of test and control compounds (testosterone, diclofenac and propafenone) and 80 μL/well microsome solution were added to a 96-well plate and incubated for 10 min at 37 °C. The reaction was started by the addition of 10 μL of NADPH regenerating system and stopped by the addition of 300 μL of stop solution (acetonitrile at 4 °C, including 100 ng/mL tolbutamide and 100 ng/mL of labetalol as internal standard) at different incubation times (0, 5, 10, 20, 30, and 60 min). Then, the samples were shaken for 10 min and centrifuged at 1699 g for 20 min at 4 °C. An aliquot of supernatant (100 μL) was transferred from each well and mixed with 300 μL of ultra-pure water before submitting to LC-MS/MS analysis. Concentrations of test and control compounds were quantified by LC-MS/MS using a peak area ratio of analyte/internal standard, and the percent loss of the parent compound was calculated at each time point to determine the half-life (t1/2, min). Experiments were performed in duplicate.
# HDAC11 = target: T1, HDAC11 (Homo sapiens, UniProt Q96DB2); test: Continuous and direct activity assay for HDAC11; format: biochemical
# T1 sequence (Q96DB2 1-347): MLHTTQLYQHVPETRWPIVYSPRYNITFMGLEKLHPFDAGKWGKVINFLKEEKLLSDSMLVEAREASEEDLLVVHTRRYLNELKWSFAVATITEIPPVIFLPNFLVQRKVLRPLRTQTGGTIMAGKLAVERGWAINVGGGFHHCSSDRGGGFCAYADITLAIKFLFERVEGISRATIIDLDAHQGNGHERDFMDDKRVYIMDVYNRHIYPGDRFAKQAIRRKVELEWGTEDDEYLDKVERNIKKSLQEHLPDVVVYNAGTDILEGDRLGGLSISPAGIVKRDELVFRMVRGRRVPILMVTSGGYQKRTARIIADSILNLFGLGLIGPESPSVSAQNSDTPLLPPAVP
smiles,measurement,setting,value
"COc1cc2nc(-c3cc(C)oc3C)cc(NCC3CCN(c4ncc(C(=O)NO)cn4)CC3)c2cc1OC [CM-1758, 2-[4-[[[2-(2,5-dimethyl-3-furyl)-6,7-dimethoxy-4-quinolyl]amino]methyl] -1-piperidyl]pyrimidine-5-carbohydroxamic acid]",LINE-1 methylation (%) CG Position 1 Replicate 1,"[1]; HL-60, 48 h",100%
same,LINE-1 methylation (%) CG Position 1 Replicate 2,"[1]; HL-60, 48 h",100%
same,LINE-1 methylation (%) CG Position 2 Replicate 1,"[1]; HL-60, 48 h",86%
same,LINE-1 methylation (%) CG Position 2 Replicate 2,"[1]; HL-60, 48 h",82%
same,LINE-1 methylation (%) CG Position 3 Replicate 1,"[1]; HL-60, 48 h",100%
same,LINE-1 methylation (%) CG Position 3 Replicate 2,"[1]; HL-60, 48 h",100%
same,LINE-1 methylation (%) CG Position 4 Replicate 1,"[1]; HL-60, 48 h",100%
same,LINE-1 methylation (%) CG Position 4 Replicate 2,"[1]; HL-60, 48 h",100%
same,LINE-1 methylation (%) CG Position 5 Replicate 1,"[1]; HL-60, 48 h",79%
same,LINE-1 methylation (%) CG Position 5 Replicate 2,"[1]; HL-60, 48 h",83%
same,LINE-1 methylation (%) CG Position 1,"[1]; HL-60, 10 days",76% and 78%
same,LINE-1 methylation (%) CG Position 2,"[1]; HL-60, 10 days",61% and 65%
same,LINE-1 methylation (%) CG Position 3,"[1]; HL-60, 10 days",77% and 85%
same,LINE-1 methylation (%) CG Position 4,"[1]; HL-60, 10 days",87% and 93%
same,LINE-1 methylation (%) CG Position 5,"[1]; HL-60, 10 days",57% and 55%
same,LINE-1 methylation (%) CG Position 1,"[2]; MV4-11, 48 hours",85%
same,LINE-1 methylation (%) CG Position 2,"[2]; MV4-11, 48 hours",80% and 74%
same,LINE-1 methylation (%) CG Position 3,"[2]; MV4-11, 48 hours",87%
same,LINE-1 methylation (%) CG Position 4,"[2]; MV4-11, 48 hours",95% and 97%
same,LINE-1 methylation (%) CG Position 5,"[2]; MV4-11, 48 hours",69% and 65%
same,LINE-1 methylation (%) CG Position 1,"[2]; MV4-11, 5 days",79% and 75%
same,LINE-1 methylation (%) CG Position 2,"[2]; MV4-11, 5 days",77% and 79%
same,LINE-1 methylation (%) CG Position 3,"[2]; MV4-11, 5 days",82% and 84%
same,LINE-1 methylation (%) CG Position 4,"[2]; MV4-11, 5 days",92% and 86%
same,LINE-1 methylation (%) CG Position 5,"[2]; MV4-11, 5 days",66% and 60%
same,LINE-1 methylation (%) CG Position 1,"[3]; MOLM-13, 48 hours",99% and 97%
same,LINE-1 methylation (%) CG Position 2,"[3]; MOLM-13, 48 hours",85% and 81%
same,LINE-1 methylation (%) CG Position 3,"[3]; MOLM-13, 48 hours",100% and 96%
same,LINE-1 methylation (%) CG Position 4,"[3]; MOLM-13, 48 hours",100%
same,LINE-1 methylation (%) CG Position 5,"[3]; MOLM-13, 48 hours",70% and 82%
same,LINE-1 methylation (%) CG Position 1,"[3]; MOLM-13, 5 days",69% and 59%
same,LINE-1 methylation (%) CG Position 2,"[3]; MOLM-13, 5 days",63% and 69%
same,LINE-1 methylation (%) CG Position 3,"[3]; MOLM-13, 5 days",78% and 80%
same,LINE-1 methylation (%) CG Position 4,"[3]; MOLM-13, 5 days",83% and 87%
same,LINE-1 methylation (%) CG Position 5,"[3]; MOLM-13, 5 days",58% and 54%
same,LINE-1 methylation (%) CG Position 1,"[4]; ML-2, 48 hours",70% and 68%
same,LINE-1 methylation (%) CG Position 2,"[4]; ML-2, 48 hours",72% and 74%
same,LINE-1 methylation (%) CG Position 3,"[4]; ML-2, 48 hours",78% and 80%
same,LINE-1 methylation (%) CG Position 4,"[4]; ML-2, 48 hours",85% and 89%
same,LINE-1 methylation (%) CG Position 5,"[4]; ML-2, 48 hours",59% and 61%
same,LINE-1 methylation (%) CG Position 1,"[4]; ML-2, 10 days",60%
same,LINE-1 methylation (%) CG Position 2,"[4]; ML-2, 10 days",54% and 50%
same,LINE-1 methylation (%) CG Position 3,"[4]; ML-2, 10 days",61% and 63%
same,LINE-1 methylation (%) CG Position 4,"[4]; ML-2, 10 days",73% and 65%
same,LINE-1 methylation (%) CG Position 5,"[4]; ML-2, 10 days",43% and 39%
same,half-life at 1 µM,"[5]; C57, mouse liver microsomes",12.5 min
same,half-life at 1 µM,[5]; human liver microsomes,37.9 min
same,inhibition at 10 µM,"HDAC11; 10 µM, source data of Fig. 1B",90%
same,IC50,HDAC11; Continuous Activity Assay for HDAC11,600 nM
